ChEMBL document CHEMBL1140752, “High confidence predictions of drug-drug interactions: predicting affinities for cytochrome P450 2C9 with multiple computational methods” (J Med Chem, 2008)

Biological target: Cytochrome P450 2C9 (Homo sapiens, UniProt P11712)
Assay: Inhibition of CYP2C9
Format: ADME

Chain of Cytochrome P450 2C9 (P11712 whole entry): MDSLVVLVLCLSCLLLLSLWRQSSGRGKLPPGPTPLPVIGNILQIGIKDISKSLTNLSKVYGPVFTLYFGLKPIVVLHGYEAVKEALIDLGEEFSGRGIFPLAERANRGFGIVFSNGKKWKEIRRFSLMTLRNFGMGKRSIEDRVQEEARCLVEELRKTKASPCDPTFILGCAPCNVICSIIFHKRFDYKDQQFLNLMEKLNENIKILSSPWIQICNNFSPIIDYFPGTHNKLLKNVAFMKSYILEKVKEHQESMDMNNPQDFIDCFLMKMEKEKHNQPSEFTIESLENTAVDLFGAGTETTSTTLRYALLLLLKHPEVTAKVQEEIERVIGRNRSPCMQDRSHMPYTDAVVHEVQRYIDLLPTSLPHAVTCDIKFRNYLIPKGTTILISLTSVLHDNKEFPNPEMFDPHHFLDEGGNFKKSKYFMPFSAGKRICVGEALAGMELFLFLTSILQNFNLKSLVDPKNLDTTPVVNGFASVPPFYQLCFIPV

Work on `CCc1oc2ccccc2c(=O)c1C(=O)c1cc(Br)c(O)c(Br)c1` yielded a Ki of 101 nM.
